Strand notation (5' to 3'): a small letter for the sugar, then the base; units joined by * are phosphorothioate-linked, units joined directly phosphodiester-linked; [ ] holds rarer units or linkages, { } end groups; capitals alone tell only the bases. d = 2'-deoxy (DNA)
Key:
[1] = system: freshly isolated peripheral blood human monocytes; assay: IL-12 p40 production by human monocytes (ELISA); assay type: cell-based; conditions: adherent PBMCs from a healthy donor, 0.5-2 μg/ml PBS, 24 hours incubation, FIG. 1
Protocol: Adherent Peripheral Blood Mononuclear Cells (PBMCs) from a tuberculin-negative healthy donor were incubated with AS101 or AS103 (0.5-2 μg/ml PBS) or E. coli lipopolysaccharide (LPS) (1 ng/ml PBS; Sigma) for 24 hours. Supernatants were collected after 28 hours for analysis of IL-12 production. Cell supernatants were determined using commercially available Enzyme-Linked Immunosorbent Assay (ELISA) kits (R&D Systems). Supernatants were tested for IL-12p40 by ELISA kit (Endogene).

[2] = system: KLH-specific IgG1 and IgG2a; assay: Serum antibody responses to KLH in immunized mice (ELISA titers); assay type: in vivo
Protocol: Serum was obtained from mice immunized with depyrogenated keyhole limpet hemocyanin (KLH) (5 μg; Calbiochem, La Jolla, Calif.); with KLH plusphosphorothioate-stabilized oligodeoxynucleotide-containing CpG motifs (CpG-ODN) (5′-GCTAGACGTTAGCGT-3′), synthesized by Sigma-Genosys Ltd., Cambridge, United Kingdom; with KLH, plus CpG, plus AS101 (10 μg/ml PBS); or with Dulbecco's PBS alone (Sigma, Poole, United Kingdom), each in a final volume of 50 μl PBS.
On day 7 after immunization, mice were sacrificed by cervical dislocation, and serum and popliteal lymph nodes were collected. Titers of KLH-specific IgG1 and IgG2a in the serum of the immunized mice were determined by ELISA, and analysed for the presence of antibody subclasses IgG1 and IgG2a.

[3] = system: rats; conditions: intravenous and intramuscular administration; cited from earlier work
[4] = system: Murine bone marrow-derived dendritic cells; assay: IL-12 p40 production by murine bone marrow-derived dendritic cells (ELISA); assay type: cell-based, mice; conditions: DC 10^6 cells/ml, 0.5-10 μg/ml PBS, supernatants after 24 hours, FIG. 2
Protocol: Murine bone marrow-derived dendritic cells (DC) were prepared by culturing bone marrow cells from the femur and tibia of mice in RPMI medium supplemented with 10% supernatant from a granulocyte-monocyte colony-stimulating factor-secreting cell line.
On day 7 of culture, cells were collected, washed, and resuspended in RPMI medium. DC (10^6 cells/ml) were cultured with AS101 or AS103 (0.5-10 μg/ml PBS), or with CpG. Supernatants were collected after 24 hours for analysis of IL-12 p40 production. Cell supernatants were determined using commercially available ELISA kits (R&D Systems).

**Q.** With `Cl[Te]1(Cl)OCCO1` [AS 103] as the compound, how does the “IL-12 p40 production” value [1] read?
**A.** very low response

**Q.** Which “KLH-specific antibody titer (IgG1 and IgG2a) on use together with KLH” value ([2]; KLH 5 μg plus CpG versus KLH alone, day 7, FIGS. 3a and 3b) does the source give for “CpG: phosphorothioate-stabilized oligodeoxynucleotide-containing CpG motifs (CpG-ODN) (5′-GCTAGACGTTAGCGT-3′), synthesized by Sigma-Genosys (DNA dG*dC*dT*dA*dG*dA*dC*dG*dT*dT*dA*dG*dC*dG*dT) [reference compound]” here?
**A.** increased

**Q.** For `Cl[TeH]1(Cl)(Cl)OCCO1` [AS101, ammonium trichloro(dioxyethylene-O,O′)tellurate], which “IL-12 p40 production” value [1] is on record?
**A.** potent inducer

**Q.** And the “LD50 values relative to the immunologically effective dose” value [3]?
**A.** 500-1000 folds

**Q.** What about the “IL-12 p40 production” value [4] of the same compound?
**A.** potent inducer

**Q.** And the “KLH-specific IgG1 response to KLH plus CpG on addition of the compound” value ([2]; 10 μg/ml PBS added to KLH plus CpG, day 7 after immunization, FIG. 3a)?
**A.** no further increase

**Q.** What about the “production of KLH-specific IgG2a in response to KLH plus CpG on addition of the compound” value ([2]; 10 μg/ml PBS added to KLH plus CpG, day 7 after immunization, FIG. 3b) of the same compound?
**A.** significantly increased

— US20080260770A1, “Use of Tellurium Compounds as Adjuvants” (BIOMAS LTD., priority 2004, published 2008)
